Consider eleven molecules from publication PMC9967051, “(S)-N-Benzyl-1-phenyl-3,4-dihydroisoqunoline-2(1H)-carboxamide Derivatives, Multi-Target Inhibitors of Monoamine Oxidase and Cholinesterase: Design, Synthesis, and Biological Activity” (Molecules, 2023).

In general, IC50 refers to the concentration that inhibits the measured activity by half. A word on the viability: it is a read-out of living cells in per cent, often relative to untreated cells. The inhibition is the relative decrease from the control value, in per cent.

Where two headings read alike, the source gives them in different places. A value given as a limit tells only on which side of the number the result lay.

Data set [1] concerns the target electric eel acetylcholinesterase (EeAChE). The note with it: cited from earlier work.
Data set [2] has as its target T1, MAO-A (Homo sapiens, UniProt P21397).
T1 construct: purchased Aladdin Reagent Chemicals
T1 sequence (P21397 1-527): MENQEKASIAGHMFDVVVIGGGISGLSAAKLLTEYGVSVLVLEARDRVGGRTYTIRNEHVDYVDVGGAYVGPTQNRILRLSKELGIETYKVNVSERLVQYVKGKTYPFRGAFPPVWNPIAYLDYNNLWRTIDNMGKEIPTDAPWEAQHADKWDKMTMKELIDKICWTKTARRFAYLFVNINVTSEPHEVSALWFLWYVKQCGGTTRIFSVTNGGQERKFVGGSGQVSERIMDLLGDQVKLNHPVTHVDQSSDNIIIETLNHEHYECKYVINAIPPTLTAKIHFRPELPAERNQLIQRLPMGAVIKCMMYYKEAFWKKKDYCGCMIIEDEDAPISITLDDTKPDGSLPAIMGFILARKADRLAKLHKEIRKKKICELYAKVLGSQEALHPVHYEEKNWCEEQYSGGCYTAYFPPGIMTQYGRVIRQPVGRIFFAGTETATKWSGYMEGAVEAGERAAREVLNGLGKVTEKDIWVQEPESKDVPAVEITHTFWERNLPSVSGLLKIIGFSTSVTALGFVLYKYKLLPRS
The settings on record: cited from earlier work.

The target of data set [3] is horse serum butyrylcholinesterase (EqBChE). The note with it: cited from earlier work.
The next data set concerns MAO. Kind of data set: MAO activity assay (total MAO). In kind it is biochemical. The method, then: (§1) The enzyme activity analysis was performed according to the procedure reported by Matsumoto et al. with slight modifications. All materials used in the enzymatic assays were purchased from Aladdin Reagent Chemicals. […] The concentrations of the synthesized compounds altered from 0.001 µM to 100 µM for the MAO-A and -B enzyme activity inhibition. […] The enzymatic reactions were caused by the addition of MAO-A (40 µg/mL) or MAO-B (20 µg/mL), and cultured at 37 °C for 30 min. The enzyme reactions were stopped through the addition of 2N NaOH for 75 µL. […] The inhibitory effect of enzyme activity was calculated as a percentage of product formation compared to the corresponding control with no inhibitor. A control was established to determine the interference of the tested compounds to the fluorescence assay, and the enzyme or substrate was added after the reaction stopped.

The test system of data set [4] is L929 cells. Kind of data set: AO fluorescent staining cell viability. In kind it is cell-based. The note with it: 100 μM, compared with the control group. As for the experimental part: Using the AO Fluorescent Staining Kit, AO is a tricyclic heteroaromatic dye that can penetrate cells with intact cell membranes and embed nuclear DNA, making them emit bright green fluorescence. L929 cells were selected from the logarithmic growth phase, and the cell density was adjusted to 8 × 10^5 per well with a cell counter to inoculate in a 6-well plate, and the 6-well plate was placed in a 37 °C 5% carbon dioxide cell incubator for 12 h. It grew completely adhering to the wall. After 12 h, 1 mL of medium containing 100 μM of the compound to be tested was added (for the blank group, drug-free medium was added), shaken gently, and placed in a 5% carbon dioxide cell incubator at 37 °C for 12 h. After 12h, the medium was discarded, PBS was added to wash once, 1 mL of PBS and 80 μL of AO solution (prepared according to the kit instructions) were slowly added in the dark, and mixed for 5 min to make the staining uniform and sufficient. The staining was aspirated after 5 min, washed 1–2 times with PBS, and observed under a fluorescence microscope, the results were recorded and analyzed.

Data set [5] addresses T2, MAO-B (Homo sapiens, UniProt P27338).
T2 construct: purchased Aladdin Reagent Chemicals
T2 sequence (P27338 1-520): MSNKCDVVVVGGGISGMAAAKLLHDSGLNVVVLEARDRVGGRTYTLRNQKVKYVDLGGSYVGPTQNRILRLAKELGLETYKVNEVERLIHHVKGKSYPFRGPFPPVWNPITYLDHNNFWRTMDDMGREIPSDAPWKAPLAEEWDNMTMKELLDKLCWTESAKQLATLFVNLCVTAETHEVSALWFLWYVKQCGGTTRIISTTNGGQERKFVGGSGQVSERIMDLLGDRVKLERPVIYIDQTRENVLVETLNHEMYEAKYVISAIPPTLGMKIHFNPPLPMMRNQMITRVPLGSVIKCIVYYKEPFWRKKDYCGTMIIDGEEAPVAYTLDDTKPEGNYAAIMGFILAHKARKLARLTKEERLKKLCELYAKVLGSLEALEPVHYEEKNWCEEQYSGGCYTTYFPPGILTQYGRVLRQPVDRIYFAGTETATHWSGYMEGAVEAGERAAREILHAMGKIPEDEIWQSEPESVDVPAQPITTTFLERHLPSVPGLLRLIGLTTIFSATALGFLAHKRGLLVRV
Put plainly: MAO activity assay, MAO-B. The class given is biochemical. The method, then:
as §1

The target of data set [6] is T1, MAO-A. Kind of data set: MAO activity assay, MAO-A. In kind it is biochemical. The method, then: as §1
A short description of the next data set: MTT cytotoxicity test. The note with it: mouse; L929 cells, compared with the blank control, 3.125 to 100 μM. The class given is cell-based. As for the experimental part:
(§2) L929 cells in the logarithmic growth phase were selected, and the cell density was adjusted to 2 × 10^4 per well by a cell counter. The 96-well plate was inoculated in a 96-well plate, and the 96-well plate inoculated with cells was cultured in a 37 °C 5% carbon dioxide cell incubator for 24 h. Then, the medium containing 100 μM of the compound to be tested was added (the blank group was added to the medium without drug), shaken gently, and placed in a 5% carbon dioxide cell incubator at 37 °C for 24 h. Each concentration was repeated for […].
(§3) The assay detects live cells, but not dead cells, and the resulting signal depends on how activated the cells are. […] Therefore, MTT has been used to establish quantitative colorimetric assays for mammalian cell survival and proliferation. Therefore, this method can be used to measure cytotoxicity, proliferation, or activation. After 24 h, 20 μL of […] MTT solution (prepared in PBS with pH 7.6) was added in the dark, and cultured in a cell incubator for another 4 h. After 4 h, the 96 plate was taken out to discard the original medium, and 160 μL of DMSO was added, placed on a shaker, and mixed for about 10 min. Then, a microplate reader was used to measure its absorbance at 490 nm, and the results were recorded and analyzed.
Background: Tetrazolium assays rely on reduction of a dye to a coloured formazan, in cell work by metabolically active cells.

Data set [7] concerns L929 cells. Kind of data set: MTT cytotoxicity test. The class given is cell-based. The settings on record: MTT, 3.125 to 100 μM. As for the experimental part:
as §2, §3

Data set [8] deals with T3, BChE (Homo sapiens, UniProt P06276). Kind of data set: biochemical. The note with it: compounds concentration 100 µM; read-out: Inhibition Rate BChE. The method, then:
Inhibition of AChE and BChE was measured through the spectrophotometric method developed by Ellman’s method with slight modifications. The analysis protocol contained 96-well plates (100 µL per well). Each well involved 20 µL of assay buffer solution, 20 µL of the test sample, and 40 µL of 0.2 U/mL of AChE or BChE. The mixture was incubated for 10 min at 25 °C followed by the addition of substrate (20 µL). For AChE inhibition assay, acetylthiocholine iodide (ATCI, 0.001 mol/L), while for BChE assay, butyrylthiocholine chloride (BTCCl, 0.001 mol/L) was added to it. The mixture was incubated at 37 °C for 15 min. Ellman reagent (5,5′-dithio-bis(2-nitrobenzoic acid), DTNB, 0.001 mol/L) was added. […] The blank analysis was performed. All the analyses were performed in triplicate. Inhibition rate of experimental sample or positive control group (%) = [(control group-blank background)-(experimental sample or positive control group -sample background)]/(control-blank background) × 100%.

Data set [9] addresses T2, MAO-B. The note with it: cited from earlier work.
Data set [10] addresses T3, BChE. The note with it: cited from earlier work.
The target of another data set is AChE (Homo sapiens, UniProt P22303). The settings on record: cited from earlier work.
Details of data set [11]: method as in doi:10.1007/s00044-018-2261-2. The note with it: forced swimming test, p< 0.001; cited from earlier work.

T3 sequence (P06276 29-602): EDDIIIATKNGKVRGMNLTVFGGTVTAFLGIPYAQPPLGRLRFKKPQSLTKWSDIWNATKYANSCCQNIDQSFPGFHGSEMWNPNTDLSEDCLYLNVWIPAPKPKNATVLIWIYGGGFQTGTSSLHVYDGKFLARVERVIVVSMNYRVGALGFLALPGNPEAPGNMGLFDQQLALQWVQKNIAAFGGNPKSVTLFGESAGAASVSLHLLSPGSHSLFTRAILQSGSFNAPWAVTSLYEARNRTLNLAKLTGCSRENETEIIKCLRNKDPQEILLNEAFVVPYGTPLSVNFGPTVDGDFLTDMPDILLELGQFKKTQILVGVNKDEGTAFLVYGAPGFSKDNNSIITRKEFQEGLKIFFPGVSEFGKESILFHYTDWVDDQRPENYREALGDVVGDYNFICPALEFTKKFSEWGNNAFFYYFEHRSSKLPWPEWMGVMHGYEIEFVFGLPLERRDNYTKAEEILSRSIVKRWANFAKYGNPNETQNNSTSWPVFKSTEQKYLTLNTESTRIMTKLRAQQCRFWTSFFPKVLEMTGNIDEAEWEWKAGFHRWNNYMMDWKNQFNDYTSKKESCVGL
Sequence of AChE (P22303 32-614): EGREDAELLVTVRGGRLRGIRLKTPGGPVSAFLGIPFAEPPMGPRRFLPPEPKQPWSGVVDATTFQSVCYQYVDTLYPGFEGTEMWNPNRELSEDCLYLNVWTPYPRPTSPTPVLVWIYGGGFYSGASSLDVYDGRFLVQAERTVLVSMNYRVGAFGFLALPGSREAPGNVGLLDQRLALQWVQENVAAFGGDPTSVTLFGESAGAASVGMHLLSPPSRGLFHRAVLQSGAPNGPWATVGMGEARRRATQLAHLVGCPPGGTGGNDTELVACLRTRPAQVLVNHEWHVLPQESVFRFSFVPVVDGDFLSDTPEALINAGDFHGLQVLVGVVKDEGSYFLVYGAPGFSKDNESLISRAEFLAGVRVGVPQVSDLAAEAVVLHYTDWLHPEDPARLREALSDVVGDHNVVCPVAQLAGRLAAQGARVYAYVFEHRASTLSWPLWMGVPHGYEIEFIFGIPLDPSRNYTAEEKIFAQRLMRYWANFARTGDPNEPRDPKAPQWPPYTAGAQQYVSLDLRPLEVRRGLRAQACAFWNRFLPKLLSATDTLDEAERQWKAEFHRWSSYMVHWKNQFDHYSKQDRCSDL

Regarding `C[n+]1cc2cc3c(cc2c2ccc4cc5c(cc4c21)OCO5)OCO3` [avicine], the values for the IC50 (in [1]; at MAO-A [2]; in [3]) were 150 nM, 410 nM and 880 nM, respectively.

As to `COc1cccc(CNC(=O)N2CCc3ccccc3[C@@H]2c2ccccc2)c1` [2t, (S)-N-(m-methoxybenzyl)-1-phenyl-3,4-dihydroisoquinoline-2(1H)-carboxamide], the IC50 in the data set on MAO stood at 2080 nM; against MAO-B [5] it was 1610 nM; against MAO-A [6], 2500 nM. The “toxicity toward L929 cells (AO fluorescence staining)” value (from here on “toxicity toward L929 cells”) in the data set on L929 cells [4] was “no significant toxicity”. In the data set “MTT cytotoxicity test”, the viability at 24 h is greater than 90%. In the data set with L929 cells [7], the “cytotoxicity against L929 cells” value is “no obvious cytotoxicity”. Besides, the inhibition at 100 µM at BChE [8] was found to be 55%.

For `COc1ccc2c(c[n+](C)c3c4cc5c(cc4ccc23)OCO5)c1OC` [chelerythrine], the IC50 on MAO-B [9] was greater than 20000 nM.

`O=C(NCc1cccc(Br)c1)N1CCc2ccccc2[C@@H]1c1ccccc1` [2i, (S)-N-(m-bromobenzyl)-1-phenyl-3,4-dihydroisoquinoline-2(1H)-carboxamide]: the IC50 in the data set with MAO was 1340 nM; on MAO-B [5] it was 4300 nM; at MAO-A [6] it was 1560 nM. The “toxicity toward L929 cells” value in the data set on L929 cells [4] is “no significant toxicity”. The molecule further registered a viability at 24 h in “MTT cytotoxicity test” greater than 90%. The “cytotoxicity against L929 cells” value with L929 cells [7] was “no obvious cytotoxicity”.

In the case of `COc1cc2c3c(c1OC)-c1cc4c(cc1CC3NCC2)OCO4` (stereo not drawn) [nornantenine], the IC50 at BChE [10] is 94400 nM; on AChE it was 206000 nM.

`O=C(NCc1ccc(F)cc1)N1CCc2ccccc2[C@@H]1c1ccccc1` [2d, (S)-N-(p-fluorobenzyl)-1-phenyl-3,4-dihydroisoquinoline-2(1H)-carboxamide]: the half-inhibitory concentration (IC50) was 5780 nM in the data set on MAO, greater than 100000 nM against MAO-B [5] and 1380 nM against MAO-A [6]. Besides, the “toxicity toward L929 cells” value with L929 cells [4] is “no significant toxicity”. The viability at 24 h in “MTT cytotoxicity test” is greater than 90%. For the same molecule, the “cytotoxicity against L929 cells” value in the data set with L929 cells [7] was “no obvious cytotoxicity”.

As to `O=C(NCc1ccc(Br)cc1)N1CCc2ccccc2[C@@H]1c1ccccc1` [2j, (S)-N-(p-bromobenzyl)-1-phenyl-3,4-dihydroisoquinoline-2(1H)-carboxamide], the IC50 is 1930 nM in the data set on MAO, greater than 100000 nM against MAO-B [5] and 2480 nM at MAO-A [6]. In addition, in the data set on L929 cells [4], the “toxicity toward L929 cells” value is reported as “no significant toxicity”. Also, the viability at 24 h in “MTT cytotoxicity test” was greater than 90%. Also, the “cytotoxicity against L929 cells” value in the data set with L929 cells [7] is recorded as “no obvious cytotoxicity”. Also, the inhibition at 100 µM on BChE [8] is 34.5%.

As for `COc1ccc(CC2c3cc(O)c(OC)cc3CCN2C)cc1O` (stereo not drawn) [reticuline], the IC50 on BChE [10] was 65000 nM; at AChE it was 301000 nM.

With `Cc1ccccc1CNC(=O)N1CCc2ccccc2[C@@H]1c1ccccc1` [2p, (S)-N-(o-methylbenzyl)-1-phenyl-3,4-dihydroisoquinoline-2(1H)-carboxamide], the IC50 in the data set with MAO stood at 774 nM; on MAO-B [5], 3880 nM; against MAO-A [6] it was 2920 nM. For the same molecule, the “toxicity toward L929 cells” value with L929 cells [4] is “no significant toxicity”. The molecule also had a viability at 24 h in “MTT cytotoxicity test” greater than 90%. Moreover, in the data set with L929 cells [7], the “cytotoxicity against L929 cells” value was “no obvious cytotoxicity”.

In the case of `O=C(NCc1ccccc1)N1CCc2ccccc2[C@@H]1c1ccccc1` [2a, (S)-N-benzyl-1-phenyl-3,4-dihydroisoquinoline-2(1H)-carboxamide], the duration of immobility in data set [11] is on record as 11.0 ± 7.1 s. For the same molecule, the “Inhibition Rate for MAO” value in the data set with MAO (compounds concentration 100 µM) came to 29.2%.

Regarding `COc1ccc(CNC(=O)N2CCc3ccccc3[C@@H]2c2ccccc2)c(OC)c1` [2v, (S)-N-(2,4-dimethoxybenzyl)-1-phenyl-3,4-dihydroisoquinoline-2(1H)-carboxamide], the concentration for half-maximal inhibition (IC50) in the data set on MAO is 958 nM; on MAO-B [5] it was 3520 nM; on MAO-A [6], 3510 nM. In addition, the “toxicity toward L929 cells” value in the data set with L929 cells [4] was “no significant toxicity”. Besides, the viability at 24 h in “MTT cytotoxicity test” was greater than 90%. Moreover, the “cytotoxicity against L929 cells” value in the data set on L929 cells [7] is on record as “no obvious cytotoxicity”.
